Experimental data published in PubChem BioAssay (NCI).
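Assay format: 96-well plates, 48-hour exposure. GI50 is the concentration that inhibits growth by half. TGI: concentration producing complete growth inhibition.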

Experiments:
Assay in all cases: growth of human tumour cells (NCI), 48 h
CAKI-1 renal = test system: CAKI-1 renal
DU-145 prostate = test system: DU-145 prostate
SNB-75 CNS = test system: SNB-75 CNS
A549 NSCLC = test system: A549 NSCLC
LOX IMVI melanoma = test system: LOX IMVI melanoma
IGROV1 ovarian = test system: IGROV1 ovarian
MCF7 breast = test system: MCF7 breast
OVCAR-5 ovarian = test system: OVCAR-5 ovarian
RPMI-8226 leukemia = test system: RPMI-8226 leukemia
HCT-15 colon = test system: HCT-15 colon
MALME-3M melanoma = test system: MALME-3M melanoma
HT29 colon = test system: HT29 colon
SK-MEL-28 melanoma = test system: SK-MEL-28 melanoma
HOP-92 NSCLC = test system: HOP-92 NSCLC
SF-539 CNS = test system: SF-539 CNS
EKVX NSCLC = test system: EKVX NSCLC
OVCAR-8 ovarian = test system: OVCAR-8 ovarian
TK-10 renal = test system: TK-10 renal
UACC-62 melanoma = test system: UACC-62 melanoma
CCRF-CEM leukemia = test system: CCRF-CEM leukemia
MDA-MB-435 = test system: MDA-MB-435
HCC-2998 colon = test system: HCC-2998 colon
SN12C renal = test system: SN12C renal
SW-620 colon = test system: SW-620 colon
K-562 leukemia = test system: K-562 leukemia
MOLT-4 leukemia = test system: MOLT-4 leukemia
HCT-116 colon = test system: HCT-116 colon
PC-3 prostate = test system: PC-3 prostate
M14 melanoma = test system: M14 melanoma
OVCAR-4 ovarian = test system: OVCAR-4 ovarian
ACHN renal = test system: ACHN renal
NCI-H522 lung = test system: NCI-H522 lung
HOP-62 NSCLC = test system: HOP-62 NSCLC
SF-268 CNS = test system: SF-268 CNS
MDA-N = test system: MDA-N
HS 578T breast = test system: HS 578T breast
SK-OV-3 ovarian = test system: SK-OV-3 ovarian
T-47D breast = test system: T-47D breast
HL-60(TB) leukemia = test system: HL-60(TB) leukemia
NCI-H226 lung = test system: NCI-H226 lung
SK-MEL-5 melanoma = test system: SK-MEL-5 melanoma
OVCAR-3 ovarian = test system: OVCAR-3 ovarian
SNB-19 CNS = test system: SNB-19 CNS
UACC-257 melanoma = test system: UACC-257 melanoma
SR leukemia = test system: SR leukemia
NCI/ADR-RES ovarian = test system: NCI/ADR-RES ovarian
UO-31 renal = test system: UO-31 renal
RXF 393 renal = test system: RXF 393 renal
SF-295 CNS = test system: SF-295 CNS
COLO 205 colon = test system: COLO 205 colon
MDA-MB-231 breast = test system: MDA-MB-231 breast
A498 renal = test system: A498 renal
BT-549 breast = test system: BT-549 breast
786-0 renal = test system: 786-0 renal
NCI-H460 lung = test system: NCI-H460 lung
KM12 colon = test system: KM12 colon
U251 CNS = test system: U251 CNS
NCI-H23 lung = test system: NCI-H23 lung
SK-MEL-2 melanoma = test system: SK-MEL-2 melanoma

Cn1c2c(c3ccccc31)CCN1C(=O)C3SC21C1C(=O)N(c2ccccc2)C(=O)C31 (configuration not stated)
TGI (CAKI-1 renal): > 100 µM
TGI (DU-145 prostate): > 100 µM
GI50 (SNB-75 CNS): 13.4 µM
TGI (SNB-75 CNS): > 100 µM
TGI (A549 NSCLC): > 100 µM
TGI (LOX IMVI melanoma): > 100 µM
TGI (IGROV1 ovarian): > 100 µM
TGI (MCF7 breast): > 100 µM
TGI (OVCAR-5 ovarian): > 100 µM
TGI (RPMI-8226 leukemia): > 100 µM
TGI (HCT-15 colon): > 100 µM
TGI (MALME-3M melanoma): > 100 µM
TGI (HT29 colon): > 100 µM
TGI (SK-MEL-28 melanoma): > 100 µM
TGI (HOP-92 NSCLC): > 86.7 µM
TGI (SF-539 CNS): > 100 µM
TGI (EKVX NSCLC): > 100 µM
TGI (OVCAR-8 ovarian): > 100 µM
TGI (TK-10 renal): > 79.1 µM
TGI (UACC-62 melanoma): > 86.3 µM
GI50 (CCRF-CEM leukemia): 53.4 µM
TGI (CCRF-CEM leukemia): > 100 µM
TGI (MDA-MB-435): > 100 µM
GI50 (HCC-2998 colon): > 100 µM
TGI (HCC-2998 colon): > 100 µM
TGI (SN12C renal): > 100 µM
TGI (SW-620 colon): > 100 µM
TGI (K-562 leukemia): > 100 µM
TGI (MOLT-4 leukemia): > 100 µM
TGI (HCT-116 colon): > 100 µM
GI50 (PC-3 prostate): 23.4 µM
TGI (PC-3 prostate): > 100 µM
TGI (M14 melanoma): > 100 µM
TGI (OVCAR-4 ovarian): > 100 µM
TGI (ACHN renal): > 100 µM
TGI (NCI-H522 lung): > 100 µM
TGI (HOP-62 NSCLC): > 100 µM
TGI (SF-268 CNS): > 100 µM
TGI (MDA-N): > 100 µM
TGI (HS 578T breast): > 100 µM
TGI (SK-OV-3 ovarian): > 100 µM
TGI (T-47D breast): > 100 µM
TGI (HL-60(TB) leukemia): > 77.3 µM
TGI (NCI-H226 lung): > 100 µM
TGI (SK-MEL-5 melanoma): > 73.4 µM
TGI (OVCAR-3 ovarian): > 100 µM
TGI (SNB-19 CNS): > 100 µM
TGI (UACC-257 melanoma): > 69.2 µM
TGI (SR leukemia): > 100 µM
TGI (NCI/ADR-RES ovarian): > 100 µM
TGI (UO-31 renal): > 100 µM
TGI (RXF 393 renal): > 100 µM
TGI (SF-295 CNS): > 100 µM
TGI (COLO 205 colon): > 100 µM
TGI (MDA-MB-231 breast): > 100 µM
TGI (A498 renal): > 89.7 µM
TGI (BT-549 breast): > 100 µM
TGI (786-0 renal): > 100 µM
GI50 (NCI-H460 lung): 90.6 µM
TGI (NCI-H460 lung): > 100 µM
TGI (KM12 colon): > 100 µM
TGI (U251 CNS): > 100 µM
TGI (NCI-H23 lung): > 100 µM

Cc1cc(O)ccc1C1(c2ccc(F)cc2)OC(=O)c2ccccc21 (configuration not stated)
TGI (CAKI-1 renal): 15.3 µM
TGI (DU-145 prostate): 16.1 µM
TGI (SNB-75 CNS): 8.01 µM
TGI (A549 NSCLC): 18.3 µM
TGI (LOX IMVI melanoma): 6.65 µM
TGI (IGROV1 ovarian): 10.2 µM
TGI (MCF7 breast): 4.38 µM
TGI (OVCAR-5 ovarian): 20.1 µM
TGI (RPMI-8226 leukemia): > 62.1 µM
TGI (HCT-15 colon): 12.4 µM
TGI (MALME-3M melanoma): 26.8 µM
TGI (HT29 colon): 18 µM
TGI (SK-MEL-28 melanoma): 25.8 µM
TGI (HOP-92 NSCLC): 12.5 µM
TGI (SF-539 CNS): 9.29 µM
TGI (EKVX NSCLC): 12.6 µM
TGI (OVCAR-8 ovarian): 2.05 µM
TGI (TK-10 renal): 15.5 µM
TGI (UACC-62 melanoma): 16.9 µM
TGI (CCRF-CEM leukemia): > 95.5 µM
TGI (MDA-MB-435): 26.9 µM
TGI (HCC-2998 colon): 15.3 µM
TGI (SN12C renal): 8.23 µM
TGI (SW-620 colon): 25.5 µM
TGI (K-562 leukemia): > 72.9 µM
TGI (MOLT-4 leukemia): > 100 µM
TGI (HCT-116 colon): 12.6 µM
TGI (PC-3 prostate): 5.28 µM
TGI (M14 melanoma): 27.1 µM
TGI (OVCAR-4 ovarian): 1.08 µM
TGI (ACHN renal): 12.6 µM
TGI (NCI-H522 lung): 15.6 µM
TGI (HOP-62 NSCLC): 19.7 µM
TGI (SF-268 CNS): 39.7 µM
TGI (MDA-N): 25 µM
TGI (HS 578T breast): 2.41 µM
TGI (SK-OV-3 ovarian): 14.2 µM
TGI (T-47D breast): 0.974 µM
TGI (HL-60(TB) leukemia): > 72.2 µM
TGI (NCI-H226 lung): 8.28 µM
TGI (SK-MEL-5 melanoma): 24.3 µM
TGI (SK-MEL-2 melanoma): 17.4 µM
TGI (OVCAR-3 ovarian): 0.882 µM
TGI (SNB-19 CNS): 15.4 µM
TGI (UACC-257 melanoma): 26.7 µM
TGI (SR leukemia): > 76.8 µM
TGI (NCI/ADR-RES ovarian): 2.25 µM
TGI (UO-31 renal): 16.1 µM
TGI (RXF 393 renal): 3.33 µM
TGI (SF-295 CNS): 14.2 µM
TGI (COLO 205 colon): 11.2 µM
TGI (MDA-MB-231 breast): 26.3 µM
TGI (A498 renal): 32.9 µM
TGI (BT-549 breast): 0.653 µM
TGI (786-0 renal): 22.2 µM
TGI (NCI-H460 lung): 29 µM
TGI (KM12 colon): 7.3 µM
TGI (U251 CNS): > 49.9 µM
TGI (NCI-H23 lung): 3.27 µM
